Measurements from BindingDB's records for doi:10.1021/jm960597m (Division of Warner Lambert, 1997).

Assay: Inhibition of [3H]thymidine uptake by Dopamine receptor D2

EC50: 2.8 nM
SMILES: c1ccc(N2CCN(CC[C@H]3CC[C@H](c4c[nH]c5ccccc54)CC3)CC2)nc1 [3-{4-[2-(4-Pyridin-2-yl-piperazin-1-yl)-ethyl]-cyclohexyl}-1H-indole]
